We go through 27 compounds from patent US20250230155A1 (Vanderbilt University, priority 2021, published 2025).

The target in the assay is T1, human mAChR M4 (Homo sapiens, UniProt P08173).
T1 construct: expressed in transfected cells
T1 sequence (P08173 1-479): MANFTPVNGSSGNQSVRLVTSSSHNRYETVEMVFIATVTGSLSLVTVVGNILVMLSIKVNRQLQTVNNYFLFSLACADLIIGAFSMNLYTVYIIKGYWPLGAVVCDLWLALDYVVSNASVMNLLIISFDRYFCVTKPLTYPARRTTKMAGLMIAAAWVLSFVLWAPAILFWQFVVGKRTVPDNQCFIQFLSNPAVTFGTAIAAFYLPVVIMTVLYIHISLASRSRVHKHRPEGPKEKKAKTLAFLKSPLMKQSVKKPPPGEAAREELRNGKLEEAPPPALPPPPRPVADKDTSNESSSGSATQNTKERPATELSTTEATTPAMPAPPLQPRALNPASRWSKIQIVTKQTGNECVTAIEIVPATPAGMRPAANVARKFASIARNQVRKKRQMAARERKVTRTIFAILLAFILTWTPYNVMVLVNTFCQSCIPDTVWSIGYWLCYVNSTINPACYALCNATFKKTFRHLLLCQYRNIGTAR
The experiment in a line: mAChR M4 cell-based functional assay (calcium mobilization, CHO-K1 hM4-Gqi5 cells). The settings on record: for Emax at 30 µM: CHO-K1, % ACh maximum at 30 μM, human M4; for EC50: positive allosteric modulator activity, increase in the EC20 acetylcholine response, CHO-K1 hM4-Gqi5 cells, read-out: Human M4 EC50. In short, it runs like this:
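Fluorescent calcium read-out (Fluo-4 AM, FDSS, 1 Hz) in hM4-Gqi5 CHO-K1 cells, 11-point 1:3 compound series. Agonism scored on compound addition, PAM activity as increase of the 144 s EC20 acetylcholine response, antagonism as decrease of the 230 s EC80 response; four-parameter logistic fits give EC50 and Emax.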

Regarding `Cc1ncc(CNC(=O)c2cnc(N3CCc4ncccc4C3)c(C)c2)s1` [compound 127, 6-(7,8-dihydro-5H-1,6-naphthyridin-6-yl)-5-methyl-N-[(2-methylthiazol-5-yl)methyl]pyridine-3-carboxamide], the Emax at 30 µM was determined as 67% and the 50% effective concentration (EC50) is 2620 nM.

As for `Cc1cc(C(=O)NCc2csc3ccccc23)cnc1N1CCc2ncccc2C1` [compound 128, N-(benzothiophen-3-ylmethyl)-6-(7,8-dihydro-5H-1,6-naphthyridin-6-yl)-5-methyl-pyridine-3-carboxamide], the Emax at 30 µM worked out at 74% and the EC50 is 1150 nM.

As to `Cc1cc(CNC(=O)c2cnc(N3CCc4ncccc4C3)c(C)c2)ccn1` [compound 129, 6-(7,8-dihydro-5H-1,6-naphthyridin-6-yl)-5-methyl-N-[(2-methyl-4-pyridyl)methyl]pyridine-3-carboxamide], the maximal effect (Emax) at 30 µM worked out at 61% and the EC50 was determined as 3340 nM.

Turning to `Cc1cnccc1CNC(=O)c1cnc(N2CCc3ncccc3C2)c(C)c1` [compound 130, 6-(7,8-dihydro-5H-1,6-naphthyridin-6-yl)-5-methyl-N-[(3-methyl-4-pyridyl)methyl]pyridine-3-carboxamide], the Emax at 30 µM worked out at 82% and the concentration giving a half-maximal response (EC50) stood at 507 nM.

For `Cc1cc(C(=O)NCc2ccnc3ccccc23)cnc1N1CCc2ncccc2C1` [compound 131, 6-(7,8-dihydro-5H-1,6-naphthyridin-6-yl)-5-methyl-N-(4-quinolylmethyl)pyridine-3-carboxamide], the maximal effect (Emax) at 30 µM was found to be 57% and the concentration giving a half-maximal response (EC50) was 876 nM.

As to `Cc1ccc(Nc2cnc3c(c2)CN(c2ncc(C#N)cc2C)CC3)c(F)n1` [compound 132, 6-[3-[(2-fluoro-6-methyl-3-pyridyl)amino]-7,8-dihydro-5H-1,6-naphthyridin-6-yl]-5-methyl-pyridine-3-carbonitrile], the maximal effect (Emax) at 30 µM is 96% and the EC50 stood at 234 nM.

As to `COC(=O)c1cnc(N2CCc3ncc(Br)cc3C2)c(C)c1` [compound 133, methyl 6-(3-bromo-7,8-dihydro-5H-1,6-naphthyridin-6-yl)-5-methyl-pyridine-3-carboxylate], the concentration giving a half-maximal response (EC50) stood at 158 nM. In addition, under “CHO-K1”, the maximal effect (Emax) turned out to be 100%.

As for `Cc1cc(C(=O)NCc2cnc(Cl)s2)cnc1N1CCc2ncccc2C1` [compound 134, N-[(2-chlorothiazol-5-yl)methyl]-6-(7,8-dihydro-5H-1,6-naphthyridin-6-yl)-5-methyl-pyridine-3-carboxamide], the maximal response (Emax) at 30 µM was determined as 69% and the EC50 was determined as 1640 nM.

With `Cc1c(C(=O)NCc2ccncc2)nnc(N2CCc3ncccc3C2)c1C` [compound 135, 6-(7,8-dihydro-5H-1,6-naphthyridin-6-yl)-4,5-dimethyl-N-(4-pyridylmethyl)pyridazine-3-carboxamide], the Emax at 30 µM was 84% and the concentration for a half-maximal effect (EC50) amounted to 1800 nM.

For `Cc1c(C(=O)NCc2cccnc2)nnc(N2CCc3ncccc3C2)c1C` [compound 136, 6-(7,8-dihydro-5H-1,6-naphthyridin-6-yl)-4,5-dimethyl-N-(3-pyridylmethyl)pyridazine-3-carboxamide], the Emax at 30 µM worked out at 88% and the 50% effective concentration (EC50) was 1880 nM.

Turning to `Cc1c(C(=O)NCc2ccccn2)nnc(N2CCc3ncccc3C2)c1C` [compound 137, 6-(7,8-dihydro-5H-1,6-naphthyridin-6-yl)-4,5-dimethyl-N-(2-pyridylmethyl)pyridazine-3-carboxamide], the Emax at 30 µM amounted to 91% and the concentration giving a half-maximal response (EC50) was found to be 3380 nM.

Regarding `Cc1c(C(=O)NCc2cncs2)nnc(N2CCc3ncccc3C2)c1C` [compound 138, 6-(7,8-dihydro-5H-1,6-naphthyridin-6-yl)-4,5-dimethyl-N-(thiazol-5-ylmethyl)pyridazine-3-carboxamide], the Emax at 30 µM came to 96% and the concentration for a half-maximal effect (EC50) was found to be 1110 nM.

With `Cc1cc(C(=O)NCc2cncc(Br)c2)cnc1N1CCc2ncccc2C1` [compound 139, N-[(5-bromo-3-pyridyl)methyl]-6-(7,8-dihydro-5H-1,6-naphthyridin-6-yl)-5-methyl-pyridine-3-carboxamide], the Emax at 30 µM is 70% and the concentration for a half-maximal effect (EC50) stood at 1360 nM.

Consider `Cc1cc(C(=O)NCc2cnc3ccccc3c2)cnc1N1CCc2ncccc2C1` [compound 140, 6-(7,8-dihydro-5H-1,6-naphthyridin-6-yl)-5-methyl-N-(3-quinolylmethyl)pyridine-3-carboxamide], for which the Emax at 30 µM amounted to 62% and the concentration for a half-maximal effect (EC50) was 1030 nM.

Take `COc1ccc(Br)cc1CNC(=O)c1cnc(N2CCc3ncccc3C2)c(C)c1` [compound 141, N-[(5-bromo-2-methoxy-phenyl)methyl]-6-(7,8-dihydro-5H-1,6-naphthyridin-6-yl)-5-methyl-pyridine-3-carboxamide]: the Emax at 30 µM is 56% and the 50% effective concentration (EC50) worked out at 1420 nM.

`COC(=O)c1ccc(CNC(=O)c2cnc(N3CCc4ncccc4C3)c(C)c2)cn1` [compound 142, methyl 5-[[[6-(7,8-dihydro-5H-1,6-naphthyridin-6-yl)-5-methyl-pyridine-3-carbonyl]amino]methyl]pyridine-2-carboxylate]: the Emax at 30 µM was 50% and the EC50 is no less than 10000 nM.

In the case of `Cc1cc(C(=O)NCc2ccc(S(C)(=O)=O)cc2)cnc1N1CCc2ncccc2C1` [compound 143, 6-(7,8-dihydro-5H-1,6-naphthyridin-6-yl)-5-methyl-N-[(4-methylsulfonylphenyl)methyl] pyridine-3-carboxamide], the Emax at 30 µM stood at 53% and the EC50 came to 5830 nM.

As to `Cc1cc(C(=O)NCc2ccc(C(F)(F)F)cn2)cnc1N1CCc2ncccc2C1` [compound 144, 6-(7,8-dihydro-5H-1,6-naphthyridin-6-yl)-5-methyl-N-[[5-(trifluoromethyl)-2-pyridyl]methyl]pyridine-3-carboxamide], the Emax at 30 µM is 61% and the EC50 was 6090 nM.

`Cc1cc(C(=O)NCc2ncc(C(F)(F)F)cn2)cnc1N1CCc2ncccc2C1` [compound 145, 6-(7,8-dihydro-5H-1,6-naphthyridin-6-yl)-5-methyl-N-[[5-(trifluoromethyl)pyrimidin-2-yl]methyl]pyridine-3-carboxamide]: the maximal effect (Emax) at 30 µM is 50% and the EC50 is no less than 10000 nM.

In the case of `Cc1cc(C(=O)NCc2ncc(Cl)cn2)cnc1N1CCc2ncccc2C1` [compound 146, N-[(5-chloropyrimidin-2-yl)methyl]-6-(7,8-dihydro-5H-1,6-naphthyridin-6-yl)-5-methyl-pyridine-3-carboxamide], the Emax at 30 µM is 56% and the concentration giving a half-maximal response (EC50) is no less than 10000 nM.

For the compound `Cc1cc(C(=O)NCc2ncc(F)cn2)cnc1N1CCc2ncccc2C1` [compound 147, 6-(7,8-dihydro-5H-1,6-naphthyridin-6-yl)-N-[(5-fluoropyrimidin-2-yl)methyl]-5-methyl-pyridine-3-carboxamide], the maximal response (Emax) at 30 µM stood at 52% and the concentration giving a half-maximal response (EC50) is no less than 10000 nM.

Take `Cc1cc(C(=O)NCc2ccc(-n3ccnc3)nc2)cnc1N1CCc2ncccc2C1` [compound 148, 6-(7,8-dihydro-5H-1,6-naphthyridin-6-yl)-N-[(6-imidazol-1-yl-3-pyridyl)methyl]-5-methyl-pyridine-3-carboxamide]: the Emax at 30 µM was determined as 67% and the 50% effective concentration (EC50) stood at 3540 nM.

For the compound `CNC(=O)c1ccc(CNC(=O)c2cnc(N3CCc4ncccc4C3)c(C)c2)cc1` [compound 149, 6-(7,8-dihydro-5H-1,6-naphthyridin-6-yl)-5-methyl-N-[[4-(methylcarbamoyl)phenyl]methyl] pyridine-3-carboxamide], the maximum response (Emax) at 30 µM was determined as 56% and the concentration for a half-maximal effect (EC50) was no less than 10000 nM.

For the compound `Cc1cc(C(=O)NCc2ccc3nn[nH]c3c2)cnc1N1CCc2ncccc2C1` [compound 150, N-(3H-benzotriazol-5-ylmethyl)-6-(7,8-dihydro-5H-1,6-naphthyridin-6-yl)-5-methyl-pyridine-3-carboxamide], the Emax at 30 µM stood at 61% and the EC50 came out at 4680 nM.

As to `Cc1cc(C(=O)NCc2ccc3ncnn3c2)cnc1N1CCc2ncccc2C1` [compound 151, 6-(7,8-dihydro-5H-1,6-naphthyridin-6-yl)-5-methyl-N-([1,2,4]triazolo[1,5-a]pyridin-6-ylmethyl)pyridine-3-carboxamide], the maximum response (Emax) at 30 µM was 67% and the EC50 stood at 3250 nM.

As for `COc1cc(CNC(=O)c2cnc(N3CCc4ncccc4C3)c(C)c2)ccc1F` [compound 152, 6-(7,8-dihydro-5H-1,6-naphthyridin-6-yl)-N-[(4-fluoro-3-methoxy-phenyl)methyl]-5-methyl-pyridine-3-carboxamide], the Emax at 30 µM came out at 64% and the concentration giving a half-maximal response (EC50) was 2120 nM.

As for `Cc1cc(C(=O)NCc2ccc3c(c2)COC3)cnc1N1CCc2ncccc2C1` [compound 153, N-(1,3-dihydroisobenzofuran-5-ylmethyl)-6-(7,8-dihydro-5H-1,6-naphthyridin-6-yl)-5-methyl-pyridine-3-carboxamide], the Emax at 30 µM came out at 68% and the concentration giving a half-maximal response (EC50) was determined as 3170 nM.
